According to patent US20080269293A1, “PYRAZOLE DERIVATIVES AS ANTI-PLATELET AND ANTI-THROMBOTIC AGENTS” (Pfizer Inc., priority 2006, published 2008):

biological target: T1, platelet P2Y1 receptor (Homo sapiens, UniProt P47900); assay: P2Y1 receptor binding assay ([β-33P]-2-thiomethyl ADP); conditions: binding of 0.3 nM [β-33P]-2-thiomethyl ADP, hP2Y1 expressing 132N1 cell membrane, 25° C., 60 minutes
T1 construct: expressed in transfected cells
Protocol: Conducting P2Y, Receptor Binding Assay
[β−^33P]-2-thiomethyl ADP (2100 Ci/mmol) was purchased from PerkinElmer, Protease Inhibitors Complete, EDTA-free, was purchased from Roche, and ADP (Adenosine diphosphate), MRS2179, and 2-thiomethy ADP (2-Me-S-ADP) were purchased from Sigma Chemical Co.
Binding of 0.3 nM [β-^33P]-2-thiomethyl ADP to platelet P2Y1 receptor in 132N1 cell membrane was carried out in triplicate at 25° C. with 96 well plate (Corning, 3365). Nonspecific binding was defined as binding in the presence of 1 μM of 2-Me-S-ADP. One […] of dimethyl sulfoxide (DMSO) or 1 μL of DMSO (Sigma-Aldrich, 472301) containing a test compound diluted to final assay concentrations of 0.1 nM to 1 mM were placed into each well of a Corning 96-well plate. A volume of 60 μL of buffer: 50 mM Tris pH 7.5 (Sigma, T-2194), 1 mM EDTA (Gibco, 15575-038) and 100 mM NaCl (Gibco, 200740-011) containing 0.3 nM [β-^33P]-2-thiomethyl ADP 40 μL of hP2Y1 expressing 132N1 cell membrane prep was added to each well. After incubation on shaker for 60 minutes, The contents of the wells are filtered and washed 8 times with Tomtec Cell Harvester through UniFilter 96, GF/B plates (PerkinElmer, 6005177) Forty five microliters […] Scintillation cocktail (Ultima-Flo-M) was added into each well and plates counted on a Trilux Microbeta Counter.
• 1. Add 1 μL DMSO or compounds into the wells according to the protocol. • 2. Add 60 μL incubation buffer with [β-^33P]-2-thiomethyl ADP into each well. • 3. Add 40 μL hP2Y1 expressing 132N1 cell membrance prep. Incubate 60 minutes on top of the shaker (IKA Shutter MTS4). • 4. Filter and wash 8× with Tomtec Cell Harvester through UniFilter GF/B plates (PerkinElmer, 6005177). • 5. Add 45 μL scintillation cocktail into each well and plates counted on a Trilux Microbeta Counter.

T1 sequence (P47900 whole entry): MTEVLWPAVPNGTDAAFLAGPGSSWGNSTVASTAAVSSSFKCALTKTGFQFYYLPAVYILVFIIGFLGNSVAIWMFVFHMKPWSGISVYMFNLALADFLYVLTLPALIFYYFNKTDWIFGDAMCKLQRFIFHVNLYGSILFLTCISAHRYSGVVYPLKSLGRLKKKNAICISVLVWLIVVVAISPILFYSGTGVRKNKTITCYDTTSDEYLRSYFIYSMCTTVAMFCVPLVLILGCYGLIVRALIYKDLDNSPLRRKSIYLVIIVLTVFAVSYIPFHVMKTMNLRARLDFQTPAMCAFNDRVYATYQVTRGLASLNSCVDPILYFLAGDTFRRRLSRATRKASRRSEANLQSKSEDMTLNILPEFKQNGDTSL

IC50 [nM]	SMILES
> 10000	Cc1cc(Oc2ccccc2NC(=O)Nc2c(C)cccc2C(C)(C)C)n(-c2ccccc2)n1 [Example 77]
> 10000	Cc1ccc(C)c(NC(=O)Nc2ccccc2Oc2cc(C)nn2-c2ccccc2)c1 [Example 79]
> 10000	COc1cc(NC(=O)Nc2ccccc2Oc2cc(C)nn2-c2ccccc2)cc(OC)c1 [Example 80]
> 10000	Cc1cc(Oc2ccccc2NC(=O)Nc2ccccc2Br)n(-c2ccccc2)n1 [Example 82]
3390	CCOC(=O)C(C)(C)c1ccc(NC(=O)Nc2ccccc2Oc2cc(C)nn2-c2ccccc2Cl)cc1 [Example 83, 2-[4-(3-{2-[2-(2-Chloro-phenyl)-5-methyl-2H-pyrazol-3-yloxy]-phenyl}-ureido)-phenyl]-2-methyl-propionic acid ethyl ester]
> 10000	Cc1cc(Oc2ccccc2NC(=O)Nc2ccc(C(C)(C)C(=O)O)cc2)n(-c2ccccc2Cl)n1 [Example 84, 2-[4-(3-{2-[2-(2-Chloro-phenyl)-5-methyl-2H-pyrazol-3-yloxy]-phenyl}-ureido)-phenyl]-2-methyl-propionic acid]
> 10000	Cc1cc(Oc2ccccc2NC(=O)Nc2ccc(C(C)(C)CO)cc2)n(-c2ccccc2Cl)n1 [Example 85, 1-{2-[2-(2-Chloro-phenyl)-5-methyl-2H-pyrazol-3-yloxy]-phenyl}-3-[4-(2-hydroxy-1,1-dimethyl-ethyl)-phenyl]-urea]
5060	COC(=O)c1ccc(NC(=O)Nc2ccccc2Oc2cc(C)nn2-c2ccccc2Cl)cc1 [Example 86, 4-(3-{2-[2-(2-Chloro-phenyl)-5-methyl-2H-pyrazol-3-yloxy]-phenyl}-ureido)-benzoic acid methyl ester]
> 10000	Cc1cc(Oc2ccccc2NC(=O)Nc2ccc(CO)cc2)n(-c2ccccc2Cl)n1 [Example 87, 1-{2-[2-(2-Chloro-phenyl)-5-methyl-2H-pyrazol-3-yloxy]-phenyl}-3-(4-hydroxymethyl-phenyl)-urea]
149	Cc1cc(Oc2ccccc2NC(=O)Nc2ccc(OC(F)(F)F)cc2)n(-c2cccc(Cl)c2F)n1 [Example 88, 1-{2-[2-(3-Chloro-2-fluoro-phenyl)-5-methyl-2H-pyrazol-3-yloxy]-phenyl}-3-(4-trifluoromethoxy-phenyl)-urea]
54	Cc1cc(Oc2ccccc2NC(=O)Nc2ccc(C3CCCCC3)cc2)n(-c2ccccc2Cl)n1 [Example 89, 1-{2-[2-(2-Chloro-phenyl)-5-methyl-2H-pyrazol-3-yloxy]-phenyl}-3-(4-cyclohexyl-phenyl)-urea]
87	CCc1ccccc1-n1nc(C)cc1Oc1ccccc1NC(=O)Nc1ccc(-c2ccccc2)cc1 [Example 91, 1-(4-(phenyl)phenyl)-3-(2-(1-(2-ethylphenyl)-3-methyl-1H-pyrazol-5-yloxy)phenyl)urea]
182	CCc1ccccc1-n1nc(C)cc1Oc1ccccc1NC(=O)Nc1ccc(Oc2ccccc2)cc1 [Example 92, 1-(2-(1-(2-ethylphenyl)-3-methyl-1H-pyrazol-5-yloxy)phenyl)-3-(4-phenoxyphenyl)urea]
123	CCc1ccccc1-n1nc(C)cc1Oc1ccccc1NC(=O)Nc1ccc(C(F)(F)F)cc1F [Example 93, 1-(2-(1-(2-ethylphenyl)-3-methyl-1H-pyrazol-5-yloxy)phenyl)-3-(2-fluoro-4-(trifluoromethyl)phenyl)urea]
8780	CCc1ccccc1-n1nc(C)cc1Oc1ccccc1NC(=O)Nc1ccc(OC(F)(F)F)cc1Cl [Example 94, 1-(2-chloro-4-(trifluoromethoxy)phenyl)-3-(2-(1-(2-ethylphenyl)-3-methyl-1H-pyrazol-5-yloxy)phenyl)urea]
689	CCc1ccccc1-n1nc(C)cc1Oc1ccccc1NC(=O)Nc1ccccc1 [Example 95, 1-(2-(1-(2-ethylphenyl)-3-methyl-1H-pyrazol-5-yloxy)phenyl)-3-phenylurea]
176	Cc1cc(Oc2ccccc2NC(=O)Nc2ccc(-c3ccccc3)cc2)n(-c2ccccc2Cl)n1 [Example 96, 1-(4-(phenyl)-phenyl)-3-(2-(1-(2-chlorophenyl)-3-methyl-1H-pyrazol-5-yloxy)phenyl)urea]

IC50 [nM]	SMILES
339	Cc1cc(Oc2ccccc2NC(=O)Nc2ccc(OC(F)(F)F)cc2)n(-c2ccc(C(C)(C)C)cc2)n1 [Example 97, 1-(2-(1-(4-tert-butylphenyl)-3-methyl-1H-pyrazol-5-yloxy)phenyl)-3-(4-(trifluoromethoxy)phenyl)urea]
68	Cc1cc(Oc2ccccc2NC(=O)Nc2ccc(OC(F)(F)F)cc2)n(-c2cc(Cl)ccc2Cl)n1 [Example 98, 1-(2-(1-(2,5-dichlorophenyl)-3-methyl-1H-pyrazol-5-yloxy)phenyl)-3-(4-(trifluoromethoxy)phenyl)urea]
> 10000	Cc1cc(Oc2ccccc2NC(=O)Nc2ccc(-n3cccn3)cc2)n(-c2ccccc2Cl)n1 [Example 99, 1-(4-(1H-pyrazol-1-yl)phenyl)-3-(2-(1-(2-chlorophenyl)-3-methyl-1H-pyrazol-5-yloxy)phenyl)urea]
> 10000	Cc1cc(Oc2ccccc2NC(=O)Nc2ccc(-n3ccnc3)cc2)n(-c2ccccc2Cl)n1 [Example 100, 1-(4-(1H-imidazol-1-yl)phenyl)-3-(2-(1-(2-chlorophenyl)-3-methyl-1H-pyrazol-5-yloxy)phenyl)urea]
1020	CCc1ccccc1-n1nc(C)cc1Oc1ccccc1NC(=O)Nc1ccc(C#N)cc1 [Example 101, 1-(4-cyanophenyl)-3-(2-(1-(2-ethylphenyl)-3-methyl-1H-pyrazol-5-yloxy)phenyl)urea]
1190	CCc1ccccc1-n1nc(C)cc1Oc1ccccc1NC(=O)Nc1ccc(-c2cnco2)cc1 [Example 102, 1-(2-(1-(2-ethylphenyl)-3-methyl-1H-pyrazol-5-yloxy)phenyl)-3-(4-(oxazol-5-yl)phenyl)urea]
564	CCc1ccccc1-n1nc(C)cc1Oc1ccccc1NC(=O)Nc1ccc(OC)cc1 [Example 103, 1-(2-(1-(2-ethylphenyl)-3-methyl-1H-pyrazol-5-yloxy)phenyl)-3-(4-methoxyphenyl)urea]
22	CCc1ccccc1-n1nc(C)cc1Oc1ccccc1NC(=O)Nc1ccc(C(C)C)cc1 [Example 104, 1-(2-(1-(2-ethylphenyl)-3-methyl-1H-pyrazol-5-yloxy)phenyl)-3-(4-isopropylphenyl)urea]
> 10000	CCc1ccccc1-n1nc(C)cc1Oc1ccccc1NC(=O)Nc1ccc(CN2CCCCC2)cc1 [Example 105, 1-(2-(1-(2-ethylphenyl)-3-methyl-1H-pyrazol-5-yloxy)phenyl)-3-(4-(piperidin-1-ylmethyl)phenyl)urea]
287	CCc1ccccc1-n1nc(C)cc1Oc1ccccc1NC(=O)Nc1ccc(F)cc1F [Example 106, 1-(2,4-difluorophenyl)-3-(2-(1-(2-ethylphenyl)-3-methyl-1H-pyrazol-5-yloxy)phenyl)urea]
60	CCc1ccccc1-n1nc(C)cc1Oc1ccccc1NC(=O)Nc1ccc(C(F)(F)F)cc1 [Example 107, 1-(2-(1-(2-ethylphenyl)-3-methyl-1H-pyrazol-5-yloxy)phenyl)-3-(4-(trifluoromethyl)phenyl)urea]
12	CCc1ccccc1-n1nc(C)cc1Oc1ccccc1NC(=O)Nc1ccc(C2CCCCC2)cc1 [Example 108, 1-(4-cyclohexylphenyl)-3-(2-(1-(2-ethylphenyl)-3-methyl-1H-pyrazol-5-yloxy)phenyl)urea]
198	CCc1ccccc1-n1nc(C)cc1Oc1ccccc1NC(=O)Nc1ccc(OC(C)C)cc1 [Example 109, 1-(2-(1-(2-ethylphenyl)-3-methyl-1H-pyrazol-5-yloxy)phenyl)-3-(4-isopropoxyphenyl)urea]
290	CCc1ccccc1-n1nc(C)cc1Oc1ccccc1NC(=O)Nc1ccc(N2CCCCC2)cc1 [Example 110, 1-(2-(1-(2-ethylphenyl)-3-methyl-1H-pyrazol-5-yloxy)phenyl)-3-(4-(piperidin-1-yl)phenyl)urea]
133	CCc1ccccc1-n1nc(C)cc1Oc1ccccc1NC(=O)Nc1ccc(Cl)cc1 [Example 111, 1-(4-chlorophenyl)-3-(2-(1-(2-ethylphenyl)-3-methyl-1H-pyrazol-5-yloxy)phenyl)urea]
> 10000	CCc1ccccc1-n1nc(C)cc1Oc1ccccc1NC(=O)Nc1ccc(-n2cncn2)cc1 [Example 112, 1-(4-(1H-1,2,4-triazol-1-yl)phenyl)-3-(2-(1-(2-ethylphenyl)-3-methyl-1H-pyrazol-5-yloxy)phenyl)urea]
57	Cc1cc(Oc2ccccc2NC(=O)Nc2ccc(OC(F)(F)F)cc2)n(-c2ccccc2C(C)C)n1 [Example 113, 1-(2-(1-(2-isopropylphenyl)-3-methyl-1H-pyrazol-5-yloxy)phenyl)-3-(4-(trifluoromethoxy)phenyl)urea]
